Measurements taken from PubChem BioAssay AID1259408 (Genetic Toxicology Data Bank (GENE-TOX), 2018).
The source made the active and inactive calls. The rule behind the calls is not given here.

Test system: GENE-TOX genotoxicity assays, various organisms and cells
Test: GENE-TOX mutagenicity studies
Settings: for call: Assay Type: In vivo carcinogenicity studies
[1] = Species/Cell Type: Salmonella typhimurium (one or more of the five standard strains: TA98, TA100, TA1535, TA1537, and TA1538), Assay Type: Histidine reverse gene mutation, Ames assay, Assay Code: SALT, Evaluation Type: Evaluation A (Pre-1980)
[2] = Species/Cell Type: Nonhuman, Assay Type: Sister-chromatid exchange (SCE) in vivo, Assay Code: SC3T, Evaluation Type: Evaluation B (Post-1980)
[3] = Species/Cell Type: Salmonella typhimurium (one or more of the five standard strains: TA98, TA100, TA1535, TA1537, and TA1538), Assay Type: Histidine reverse gene mutation, Ames assay, Assay Code: SAL+*, Activation: With metabolic activation, Evaluation Type: Evaluation A (Pre-1980)

c1ccc2nc3c(ccc4ccccc43)cc2c1 was tested, and the mutagenic call (Species/Cell Type: Nonhuman, Assay Type: Sister-chromatid exchange (SCE) in vitro, Assay Code: SC2+D, Dose Response: With dose response, Evaluation Type: Evaluation B (Post-1980)) was “active; positive”.
With CC(=O)Nc1ccc(C(O)C(O)c2ccccc2)cc1 (stereo unspecified) the mutagenic call [1] was “no conclusion”.
For N#CS, the mutagenic call (Species/Cell Type: Glycine max (soybean), Assay Type: Gene mutation, Assay Code: GLM-, Evaluation Type: Evaluation A (Pre-1980)) was “inactive; negative” and the mutagenic call [1] was “no conclusion”.
With CN(CCCCO)N=O the mutagenic call [1] was “no conclusion”.
O=S(=O)(O)c1ccc(O)c(N=Nc2c(O)ccc3ccccc23)c1 was tested, and the mutagenic call [1] was “no conclusion”.
In the case of NC(=O)OCCO, the mutagenic call (Species/Cell Type: Nonhuman, Assay Type: Sister-chromatid exchange (SCE) in vitro, Assay Code: SC2+*, Activation: With metabolic activation, Evaluation Type: Evaluation B (Post-1980)) is reported as “active; positive” and the mutagenic call [2] is reported as “no conclusion”.
For CN[C@H]1C[C@H](O[C@H]2C[C@](O)(C(C)=O)Cc3c(O)c4c(c(O)c32)C(=O)c2c(OC)cccc2C4=O)O[C@@H](C)[C@H]1O, the mutagenic call [3] was “active; positive”.
For Nc1ccccc1-c1ccccc1, the mutagenic call (Species/Cell Type: Escherichia coli polA (W3110 vs P3478), Assay Type: Rec-assay, DNA effects (bacterial DNA repair), Assay Code: RE2-, Evaluation Type: Evaluation A (Pre-1980)) was “inactive; negative”, the mutagenic call (Species/Cell Type: Escherichia coli polA (W3119 vs P3478), Assay Type: Rec-assay, DNA effects (bacterial DNA repair), Assay Code: RE1T, Evaluation Type: Evaluation A (Pre-1980)) was “no conclusion” and the mutagenic call (Species/Cell Type: Fischer rat embryo (RLV/1706) cells, Assay Type: Cell transformation, viral enhanced, Assay Code: CTR-, Evaluation Type: Evaluation A (Pre-1980)) was “inactive; negative”. For the same compound, the mutagenic call (Species/Cell Type: Mouse embryo (AKR/ME) cells, Assay Type: Cell transformation, Assay Code: CTK+, Evaluation Type: Evaluation A (Pre-1980)) was “active; positive”, the call (Species/Cell Type: Nonhuman, Assay Code: CCGT, Evaluation Type: Evaluation A (Pre-1980)) was “no conclusion” and the mutagenic call [2] was “no conclusion”. For the same compound, the mutagenic call (Species/Cell Type: Rat primary hepatocytes, Assay Type: Unscheduled DNA synthesis (UDS) in vitro, DNA effects, Assay Code: UDP-, Evaluation Type: Evaluation A (Pre-1980)) was “inactive; negative”, the mutagenic call (Species/Cell Type: Saccharomyces cerevisiae, Assay Type: Mitotic recombination or gene conversion, Assay Code: YEH-, Evaluation Type: Evaluation A (Pre-1980)) was “inactive; negative” and the mutagenic call [3] was “active; positive”. For the same compound, the mutagenic call (Species/Cell Type: Salmonella typhimurium, Assay Type: Forward and reverse gene mutation, body fluid assay, Assay Code: BFU-, Evaluation Type: Evaluation A (Pre-1980)) was “inactive; negative”, the mutagenic call (Species/Cell Type: Salmonella typhimurium, Assay Type: Forward and reverse gene mutation, host-mediated assay, Assay Code: HMA-, Evaluation Type: Evaluation A (Pre-1980)) was “inactive; negative” and the mutagenic call (Species/Cell Type: Syrian hamster embryo (SHE) cells, Assay Type: Cell transformation, clonal assay, Assay Code: CTC-, Evaluation Type: Evaluation A (Pre-1980)) was “inactive; negative”.
In the case of Nc1ccc(-c2nc(NCCO)c3ccccc3n2)s1, the mutagenic call [1] is reported as “no conclusion”.
With Nc1c(F)cc(-c2cc(F)c(N)c(F)c2)cc1F the mutagenic call (Species/Cell Type: Human diploid fibroblasts, Assay Type: Unscheduled DNA synthesis (UDS) in vitro, DNA effects, Assay Code: UDH+*, Activation: With metabolic activation, Evaluation Type: Evaluation A (Pre-1980)) was “active; positive” and the mutagenic call [3] was “active; positive”.
With O=[N+]([O-])c1ccc2ccc3c4ccccc4cc4ccc1c2c43 the mutagenic call (Species/Cell Type: Chinese hamster ovary (CHO) cells, Assay Type: Forward gene mutation at the HPRT locus, Assay Code: CHO+*, Activation: With metabolic activation, Evaluation Type: Evaluation B (Post-1980)) was “active; positive”.
For Cc1cccc2cccnc12, the mutagenic call [3] was “active; positive”.
Cc1c2ccccc2c(CO)c2ccc3c(c12)C=C[C@@H](O)[C@@H]3O was tested, and the call (Species/Cell Type: Nonhuman, Assay Code: CCG+L, Evaluation Type: Evaluation A (Pre-1980)) was “active; positive”.
For COc1cc(-c2ccc(-[n+]3nc(-c4ccccc4)nn3-c3ccc([N+](=O)[O-])cc3)c(OC)c2)ccc1-[n+]1nc(-c2ccccc2)nn1-c1ccc([N+](=O)[O-])cc1, the mutagenic call (Species/Cell Type: Bacillus subtilis (H17 vs M45T), Assay Type: Rec-assay, spot test, DNA effects (bacterial DNA repair), Assay Code: REXT, Evaluation Type: Evaluation A (Pre-1980)) was “no conclusion”.
For C[S-].C[S-].N#[O+].N#[O+].N#[O+].N#[O+].[Fe].[Fe], the mutagenic call (Species/Cell Type: Nonhuman, Assay Type: Sister-chromatid exchange (SCE) in vitro, Assay Code: SC2T, Evaluation Type: Evaluation B (Post-1980)) was “no conclusion”.
In the case of O=S1(=O)OCCCO1, the mutagenic call (Species/Cell Type: Salmonella typhimurium (one or more of the five standard strains: TA98, TA100, TA1535, TA1537, and TA1538), Assay Type: Histidine reverse gene mutation, Ames assay, Assay Code: SAL+, Evaluation Type: Evaluation A (Pre-1980)) is reported as “active; positive” and the mutagenic call (Species/Cell Type: Salmonella typhimurium, Assay Type: Forward and reverse gene mutation, host-mediated assay, Assay Code: HMA+, Evaluation Type: Evaluation A (Pre-1980)) is reported as “active; positive”.
